Ends that are not written are not given here.
Assays:
A. baumannii 5075 = details: Week 2 (12/14/2023)
K. pneumoniae 4640 = details: 4640, 20 h
P. aeruginosa PA01 (Si) = experiment: microbe, parasite or virus in culture; type: cell-based; details: Si
Excerpt: Supplement 41522_2025_837_MOESM13_ESM.xlsx, sheet "Table_S13_ESKAPEE-MIC" | column: Bacterial MIC (µg/mL)

P. aeruginosa PA01 = experiment: microbe, parasite or virus in culture; type: cell-based; details: P. aeruginosa 15692 (PAO1); Week 2 (12/14/2023)
Protocol: Antimicrobial susceptibility testing of the 20 synthesized peptides against 17 bacterial strains of clinical relevance in the ESKAPEE panel was conducted using minimum inhibitory concentration (MIC) assays following the broth microdilution method outlined by Parker et al.[91]. The ESKAPEE panel is comprised of fourteen American Type Culture Collection (ATCC) strains and three Multidrug Resistant Organism Repository and Surveillance Network (MRSN) bacterial strains. These strains represent at least one drug-susceptible strain and one drug-resistant strain for each bacterium to assess drug efficacy across various resistance mechanisms. This panel is comprised of the following bacterial species and strains: E. faecium (ATCC 19434, ATCC 49224), S. aureus (ATCC 25923, ATCC 43300), K. pneumoniae (ATCC 700603, ATCC 13883, MRSN 1320), A. baumannii (ATCC 17978, ATCC 19606, MRSN 959), P. aeruginosa (ATCC 15692, ATCC 27853, MRSN 5519), E. cloacae (ATCC 13047, ATCC 35549), and E. coli (ATCC 35218, ATCC 43888). Bacteria were grown in cation-adjusted Mueller-Hinton broth (CAMHB) to achieve a final inoculum of 1 × 10⁵ CFU/mL. CAMHB is selected for its batch-to-batch reproducibility, low levels of antimicrobial inhibitors, and ability to support the growth of most bacterial pathogens.
Briefly, lyophilized peptides were dissolved in 0.2% TFA + 0.4% BSA in water to 2.56 mg/mL, ultrasonicated for 20 min, diluted 10-fold into CAMHB, and then serially diluted 2-fold in 0.02% TFA + 0.04% BSA in CAMHB and assayed at a concentration of 0.25 to 128 μg/mL. Assays were set up using the Tecan Freedom EVO liquid handling robot and software (Tecan, Switzerland) with 50 μL of bacterial inoculum and 50 μL of peptide transferred into round-bottom 96-well microtiter plates. Each plate assay was performed in duplicate and incubated at 37 °C for 20 h without agitation. Bacterial growth was assessed using the BIOMIC V3 Image Analysis system (Giles Scientific, USA) and the MIC values were determined visually according to the Clinical and Laboratory Standards Institute (CLSI) guidelines.

K. pneumoniae ATCC 13883 = experiment: microbe, parasite or virus in culture; details: ATCC 13883, 20 h
How it was run: (§1)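 Broth microdilution in cation-adjusted Mueller-Hinton broth, final inoculum 1 × 10⁵ CFU/mL, peptides 0.25 to 128 μg/mL in 0.02% TFA + 0.04% BSA. Duplicates incubated 20 h at 37 °C without agitation. MIC read visually per CLSI with image-analysis support.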

E. faecium ATCC 19434 = experiment: microbe, parasite or virus in culture; details: ATCC 19434, 20 h
How it was run: as §1

[1] = tested on: K. pneumoniae ATCC 700603; experiment: microbe, parasite or virus in culture; details: K. pneumoniae 700603; Week 2 (12/14/2023)
How it was run: as §1

E. cloacae ATCC 13047 = experiment: microbe, parasite or virus in culture; details: ATCC 13047, 20 h
How it was run: as §1

S. aureus ATCC 25923 = experiment: microbe, parasite or virus in culture; details: ATCC 25923, 20 h
How it was run: as §1

E. faecium ATCC 49224 = experiment: microbe, parasite or virus in culture; details: ATCC 49224, 20 h
How it was run: as §1

A. baumannii ATCC 17978 = experiment: microbe, parasite or virus in culture; details: ATCC 17978, 20 h
How it was run: as §1

E. coli ATCC 35218 = experiment: microbe, parasite or virus in culture; details: E. coli 35218; Week 2 (12/14/2023)
How it was run: as §1

P. aeruginosa ATCC 27853 = experiment: microbe, parasite or virus in culture; details: ATCC 27853, 20 h
How it was run: as §1

E. coli ATCC 43888 = experiment: microbe, parasite or virus in culture; details: ATCC 43888, 20 h
How it was run: as §1

S. aureus ATCC 43300 = experiment: microbe, parasite or virus in culture; details: S. aureus 43300; Week 2 (12/14/2023)
How it was run: as §1

A. baumannii ATCC 19606 = experiment: microbe, parasite or virus in culture; details: ATCC 19606, 20 h
How it was run: as §1

P. aeruginosa MRSN 5519 = experiment: microbe, parasite or virus in culture; details: MRSN 5519, 20 h
How it was run: as §1

E. cloacae ATCC 35549 = experiment: microbe, parasite or virus in culture; details: ATCC 35549, 20 h
How it was run: as §1

[2] = parameters: method as in Biomatik (vendor); details: 1.0 mg peptide in 1.0 ml solvent; peptides synthesized by Biomatik; ref Biomatik (vendor); cited from earlier work

| Sequence | Bacterial MIC (A. baumannii 5075) [µg/mL] | Bacterial MIC (K. pneumoniae 4640) [µg/mL] | Bacterial MIC (P. aeruginosa PA01 (Si)) [µg/mL] | Bacterial MIC (P. aeruginosa PA01) [µg/mL] | Bacterial MIC (K. pneumoniae ATCC 13883) [µg/mL] | Bacterial MIC (E. faecium ATCC 19434) [µg/mL] | Bacterial MIC [1] [µg/mL] | Bacterial MIC (E. cloacae ATCC 13047) [µg/mL] | Bacterial MIC (S. aureus ATCC 25923) [µg/mL] | Bacterial MIC (E. faecium ATCC 49224) [µg/mL] | Bacterial MIC (A. baumannii ATCC 17978) [µg/mL] | Bacterial MIC (E. coli ATCC 35218) [µg/mL] | Bacterial MIC (P. aeruginosa ATCC 27853) [µg/mL] | Bacterial MIC (E. coli ATCC 43888) [µg/mL] | Bacterial MIC (S. aureus ATCC 43300) [µg/mL] | Bacterial MIC (A. baumannii ATCC 19606) [µg/mL] | Bacterial MIC (P. aeruginosa MRSN 5519) [µg/mL] | Bacterial MIC (E. cloacae ATCC 35549) [µg/mL] | Suggest solvent (solubility) [2] |
| --- | --- | --- | --- | --- | --- | --- | --- | --- | --- | --- | --- | --- | --- | --- | --- | --- | --- | --- | --- |
| KRAGYARMIR [PrAd-Eb18] | >128.000 | >128.000 | >128.000 | >128.000 | >128.000 | >128.000 | >128.000 | >128.000 | >128.000 | >128.000 | >128.000 | >128.000 | >128.000 | >128.000 | >128.000 | >128.000 | >128.000 | >128.000 | 1.0mg peptide soluble in 1.0ml H2O |
| NANGASNANGASYANGASN [TrPr-Pc34] | >128.000 | >128.000 | >128.000 | >128.000 | >128.000 | >128.000 | >128.000 | >128.000 | >128.000 | >128.000 | >128.000 | >128.000 | >128.000 | >128.000 | >128.000 | >128.000 | >128.000 | >128.000 | 1.0mg peptide soluble in 1.0ml H2O |
| RVPPGFSPFR [PrAd-Eb28] | >128.000 | >128.000 | >128.000 | >128.000 | >128.000 | >128.000 | >128.000 | >128.000 | >128.000 | >128.000 | >128.000 | >128.000 | >128.000 | >128.000 | >128.000 | >128.000 | >128.000 | >128.000 | 1.0mg peptide soluble in 1.0ml H2O |
